One compound from patent US20230357310A1, “Saponin derivatives with improved therapeutic window” (priority 2019, published 2023) can be followed below.

Each structure is given as a SMILES string.

One series concerns A431 cells. In kind it is cell-based. Conditions: A431, Table A6; read-out: IC50 nM (Toxicity).
A short description of series [1]: Critical micellar concentration (ANS fluorescence). In kind it is physicochemical. Conditions: comparison in words. The procedure:
The critical micellar concentration (CMC) of saponins derived from Saponaria officinalis (SO) (Table A7) and derived from Quillaja saponaria (QS) (Table A8, and Table A9) was determined by the method of DeVendittis et al. (A fluorimetric method for the estimation of the critical micelle concentration of surfactants, Analytical Biochemistry, Volume 115, Issue 2, August 1981, Pages 278-286) as follows:
The emission spectrum of 8-Anilinonaphthalene-1-sulfonic acid (ANS) in either purified water (MQ) or PBS (Dulbecco's PBS+/+) was determined at dry weight concentrations of saponins ranging from 1 to 1400 μM to cover the range below and above the CMC. Above the CMC, the fluorescence yield of ANS increases and the wavelength of maximum emission decreases due to portioning of the fluorescent dye into micelles. Fluorescence yields were recorded on a Fluoroskan Ascent FL (Thermo Scientific) at an excitation wavelength of 355 nm, and an emission wavelength of 460 nm. 6 μg at a concentration of 75.86 μM of ANS were used per sample and measurement.

What is called IC50 is the concentration at which inhibition is half-maximal. For the compound `CC(=O)OC1C(C)OC(OC2C(C)OC(OC(=O)[C@]34CCC(C)(C)CC3C3=CCC5[C@@]6(C)CC[C@H](OC7OC(C(=O)NCCN8C(=O)C=CC8=O)C(O)C(OC8OCC(O)C(O)C8O)C7OC7OC(CO)C(O)C(O)C7O)[C@@](C)(C=O)C6CC[C@@]5(C)[C@]3(C)C[C@H]4O)C(OC3OC(C)C(OC4OCC(O)C(OC5OC(CO)C(O)C(O)C5O)C4O)C(O)C3O)C2O)C(O)C1OC1OCC(O)C(O)C1O` (some centres unmarked) [SO1861-Glu-AEM], the IC50 in the series with A431 cells was over 100000 nM. The “CMC compared with native (underivatised) saponin” value in series [1] is “lower CMC values”.
